Measured values: PubChem BioAssay (NCI)
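Values below derive from 48-hour exposures of cells grown in 96-well plates, with endpoints linearly interpolated between the two concentrations bracketing the appropriate inhibition level. GI50 is the concentration that inhibits growth by half. The concentration for full growth arrest is given as TGI.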

How the values were obtained:
Assay in all cases: DTP human tumour cell line panel, 48 h
[1] = tested on: ACHN renal
[2] = tested on: CAKI-1 renal
[3] = tested on: COLO 205 colon
[4] = tested on: DU-145 prostate
[5] = tested on: EKVX NSCLC
[6] = tested on: HCC-2998 colon
[7] = tested on: HCT-15 colon
[8] = tested on: HOP-92 NSCLC
[9] = tested on: K-562 leukemia
[10] = tested on: KM12 colon
[11] = tested on: M14 melanoma
[12] = tested on: MALME-3M melanoma
[13] = tested on: MDA-MB-231 breast
[14] = tested on: MDA-MB-435
[15] = tested on: NCI-H23 lung
[16] = tested on: NCI-H460 lung
[17] = tested on: NCI/ADR-RES ovarian
[18] = tested on: OVCAR-3 ovarian
[19] = tested on: OVCAR-4 ovarian
[20] = tested on: OVCAR-5 ovarian
[21] = tested on: OVCAR-8 ovarian
[22] = tested on: PC-3 prostate
[23] = tested on: RXF 393 renal
[24] = tested on: SF-268 CNS
[25] = tested on: SF-295 CNS
[26] = tested on: SF-539 CNS
[27] = tested on: SK-MEL-28 melanoma
[28] = tested on: SK-MEL-5 melanoma
[29] = tested on: SK-OV-3 ovarian
[30] = tested on: SN12C renal
[31] = tested on: SNB-75 CNS
[32] = tested on: SW-620 colon
[33] = tested on: TK-10 renal
[34] = tested on: UACC-257 melanoma
[35] = tested on: UACC-62 melanoma
[36] = tested on: UO-31 renal
[37] = tested on: 786-0 renal
[38] = tested on: A498 renal
[39] = tested on: A549 NSCLC
[40] = tested on: BT-549 breast
[41] = tested on: CCRF-CEM leukemia
[42] = tested on: HCT-116 colon
[43] = tested on: HL-60(TB) leukemia
[44] = tested on: HOP-62 NSCLC
[45] = tested on: HT29 colon
[46] = tested on: IGROV1 ovarian
[47] = tested on: LOX IMVI melanoma
[48] = tested on: MCF7 breast
[49] = tested on: MOLT-4 leukemia
[50] = tested on: NCI-H226 lung
[51] = tested on: NCI-H522 lung
[52] = tested on: SK-MEL-2 melanoma
[53] = tested on: SNB-19 CNS
[54] = tested on: T-47D breast
[55] = tested on: U251 CNS

In the case of `COc1ccc(-c2ccc(-c3ccc(C(=N)N)nc3)s2)cc1`, the GI50 [1] is reported as 1.84 µM, the TGI [1] is reported as 3.24 µM and the GI50 [2] is reported as 1.64 µM. For the same molecule, the TGI [2] was 3 µM, the GI50 [3] was 1.89 µM and the TGI [3] was 3.92 µM. For the same molecule, the GI50 [4] was 1.77 µM, the TGI [4] was 3.17 µM and the GI50 [5] was 1.7 µM. The TGI [5] was 3.14 µM, the GI50 [6] was 1.82 µM and the TGI [6] was 3.41 µM. The GI50 [7] was 1.27 µM, the TGI [7] was 2.7 µM and the GI50 [8] was 1.5 µM. The TGI [8] was 3.07 µM, the GI50 [9] was 1.09 µM and the TGI [9] was 3.53 µM. The GI50 [10] was 1.81 µM, the TGI [10] was 3.3 µM and the GI50 [11] was 1.8 µM. For the same molecule, the TGI [11] was 3.35 µM, the GI50 [12] was 1.84 µM and the TGI [12] was 3.44 µM. For the same molecule, the GI50 [13] was 1.75 µM, the TGI [13] was 3.28 µM and the GI50 [14] was 1.73 µM. For the same molecule, the TGI [14] was 3.11 µM, the GI50 [15] was 1.84 µM and the TGI [15] was 3.46 µM. It also gave a GI50 [16] of 0.524 µM, a TGI [16] of 1.82 µM and a GI50 [17] of 1.94 µM. It also gave a TGI [17] of 3.75 µM, a GI50 [18] of 1.82 µM and a TGI [18] of 3.27 µM. For the same molecule, the GI50 [19] was 1.79 µM, the TGI [19] was 3.3 µM and the GI50 [20] was 1.67 µM. It also gave a TGI [20] of 3.11 µM, a GI50 [21] of 2.12 µM and a TGI [21] of 4.87 µM. It also gave a GI50 [22] of 1.68 µM, a TGI [22] of 3.31 µM and a GI50 [23] of 1.77 µM. It also gave a TGI [23] of 3.34 µM, a GI50 [24] of 1.76 µM and a TGI [24] of 3.28 µM. It also gave a GI50 [25] of 1.71 µM, a TGI [25] of 3.1 µM and a GI50 [26] of 1.73 µM. It also gave a TGI [26] of 3.17 µM, a GI50 [27] of 1.75 µM and a TGI [27] of 3.27 µM. The GI50 [28] was 1.79 µM, the TGI [28] was 3.26 µM and the GI50 [29] was 1.7 µM. The TGI [29] was 3.23 µM, the GI50 [30] was 1.83 µM and the TGI [30] was 3.68 µM. The GI50 [31] was 1.55 µM, the TGI [31] was 2.88 µM and the GI50 [32] was 0.43 µM. It also gave a TGI [32] of 1.7 µM, a GI50 [33] of 1.89 µM and a TGI [33] of 3.54 µM. For the same molecule, the GI50 [34] was 1.8 µM, the TGI [34] was 3.51 µM and the GI50 [35] was 1.81 µM. The TGI [35] was 3.38 µM, the GI50 [36] was 1.64 µM and the TGI [36] was 3.08 µM.
`N#CC(C#N)=Cc1ccc(-c2ccc(-c3nc4ccccc4s3)cc2)o1` was tested, and the GI50 [37] was 3.15 µM, the TGI [37] was 16 µM and the GI50 [38] was 0.346 µM. The TGI [38] was 0.985 µM, the GI50 [39] was 14.3 µM and the TGI [39] was 38.5 µM. For the same molecule, the GI50 [1] was 18.5 µM, the TGI [1] was over 100 µM and the GI50 [40] was 32.9 µM. The TGI [40] was 96.1 µM, the GI50 [2] was 25 µM and the TGI [2] was over 100 µM. For the same molecule, the GI50 [41] was 4.15 µM, the TGI [41] was 70.6 µM and the GI50 [3] was 20.6 µM. The TGI [3] was 55.3 µM, the GI50 [4] was 18.2 µM and the TGI [4] was 78.2 µM. It also gave a GI50 [5] of 25.7 µM, a TGI [5] of over 100 µM and a GI50 [6] of 18.9 µM. The TGI [6] was 45.1 µM, the GI50 [42] was 5.11 µM and the TGI [42] was 24.9 µM. It also gave a GI50 [7] of 11.9 µM, a TGI [7] of 50.4 µM and a GI50 [43] of 37.4 µM. The TGI [43] was over 100 µM, the GI50 [44] was 11.4 µM and the TGI [44] was 44.2 µM. It also gave a GI50 [45] of 46 µM, a TGI [45] of over 100 µM and a GI50 [46] of 3.7 µM. For the same molecule, the TGI [46] was 56.3 µM, the GI50 [9] was 27.4 µM and the TGI [9] was over 100 µM. The GI50 [10] was 16.9 µM, the TGI [10] was over 100 µM and the GI50 [47] was 15.1 µM. For the same molecule, the TGI [47] was 30.3 µM, the GI50 [11] was over 100 µM and the TGI [11] was over 100 µM. It also gave a GI50 [12] of 22.2 µM, a TGI [12] of over 100 µM and a GI50 [48] of 6.2 µM. For the same molecule, the TGI [48] was over 100 µM, the GI50 [13] was 19.8 µM and the TGI [13] was 37.8 µM. It also gave a GI50 [14] of 25.4 µM, a TGI [14] of 81.8 µM and a GI50 [49] of 14 µM. The TGI [49] was over 100 µM, the GI50 [50] was 14.2 µM and the TGI [50] was 39.2 µM. It also gave a GI50 [15] of 15.6 µM, a TGI [15] of 43.3 µM and a GI50 [16] of 30.1 µM. It also gave a TGI [16] of over 100 µM, a GI50 [51] of 17.8 µM and a TGI [51] of 51.8 µM. The GI50 [17] was 4.16 µM, the TGI [17] was 14.3 µM and the GI50 [18] was 66.9 µM. For the same molecule, the TGI [18] was over 100 µM, the GI50 [19] was 30.5 µM and the TGI [19] was over 100 µM. For the same molecule, the GI50 [20] was 11.9 µM, the TGI [20] was 24.2 µM and the GI50 [21] was 12.7 µM. It also gave a TGI [21] of 33.1 µM, a GI50 [22] of 9.54 µM and a TGI [22] of 22.5 µM. It also gave a GI50 [23] of 42.4 µM, a TGI [23] of over 100 µM and a GI50 [24] of 27.6 µM. The TGI [24] was over 100 µM, the GI50 [25] was 20.7 µM and the TGI [25] was 46 µM. It also gave a GI50 [26] of 11.2 µM, a TGI [26] of 26.7 µM and a GI50 [52] of 63.2 µM. For the same molecule, the TGI [52] was over 100 µM, the GI50 [27] was 27.5 µM and the TGI [27] was over 100 µM. The GI50 [28] was 6.01 µM, the TGI [28] was 76.2 µM and the GI50 [29] was 10 µM. The TGI [29] was 35.4 µM, the GI50 [30] was 1.09 µM and the TGI [30] was 12.6 µM. It also gave a GI50 [53] of 30 µM, a TGI [53] of 84.3 µM and a GI50 [31] of 25.3 µM. It also gave a TGI [31] of 60 µM, a GI50 [32] of 7.9 µM and a TGI [32] of over 100 µM. For the same molecule, the GI50 [54] was 4.46 µM, the TGI [54] was 38.2 µM and the GI50 [33] was 17.2 µM. The TGI [33] was 36.9 µM, the GI50 [55] was 12 µM and the TGI [55] was 24.8 µM. It also gave a GI50 [34] of 92.9 µM, a TGI [34] of over 100 µM and a GI50 [35] of 21.7 µM. The TGI [35] was 70.3 µM, the GI50 [36] was 20.3 µM and the TGI [36] was over 100 µM.
